Where two headings read alike, the source gives them in different places.
Tests used:
Assay type in all cases: cell-based
[1] = biological target: T1, GluA1/2 AMPA receptor subunits (flip isoform) (Homo sapiens, UniProt P42261+P42262); assay: Whole-cell patch-clamp electrophysiology, heteromeric GluA1/2 expressed in HEK293 cells; details: for Amplitude (glutamate + compound): 10 mM glutamate + 12 µM compound, −60 mV, pH 7.4, 22 °C, mean ± SEM; for Amplitude (glutamate + compound) / A/AI (current with glutamate alone / current with glutamate + compound): n = 10; for A/AI (current with glutamate alone / current with glutamate + compound): 10 mM glutamate, 12 µM compound; for IC50: Hill fit; for t deact (weighted deactivation time constant) / t des (weighted desensitization time constant): glutamate + 12 µM compound; for t deact (weighted deactivation time constant): glutamate alone 2.5±0.3 ms; for t des (weighted desensitization time constant): glutamate alone 5.3±0.4 ms
T1 construct: expressed in transfected cells; host or cells: HEK293
T1 sequence (P42261 19-906 isoform P42261-2 limits assumed): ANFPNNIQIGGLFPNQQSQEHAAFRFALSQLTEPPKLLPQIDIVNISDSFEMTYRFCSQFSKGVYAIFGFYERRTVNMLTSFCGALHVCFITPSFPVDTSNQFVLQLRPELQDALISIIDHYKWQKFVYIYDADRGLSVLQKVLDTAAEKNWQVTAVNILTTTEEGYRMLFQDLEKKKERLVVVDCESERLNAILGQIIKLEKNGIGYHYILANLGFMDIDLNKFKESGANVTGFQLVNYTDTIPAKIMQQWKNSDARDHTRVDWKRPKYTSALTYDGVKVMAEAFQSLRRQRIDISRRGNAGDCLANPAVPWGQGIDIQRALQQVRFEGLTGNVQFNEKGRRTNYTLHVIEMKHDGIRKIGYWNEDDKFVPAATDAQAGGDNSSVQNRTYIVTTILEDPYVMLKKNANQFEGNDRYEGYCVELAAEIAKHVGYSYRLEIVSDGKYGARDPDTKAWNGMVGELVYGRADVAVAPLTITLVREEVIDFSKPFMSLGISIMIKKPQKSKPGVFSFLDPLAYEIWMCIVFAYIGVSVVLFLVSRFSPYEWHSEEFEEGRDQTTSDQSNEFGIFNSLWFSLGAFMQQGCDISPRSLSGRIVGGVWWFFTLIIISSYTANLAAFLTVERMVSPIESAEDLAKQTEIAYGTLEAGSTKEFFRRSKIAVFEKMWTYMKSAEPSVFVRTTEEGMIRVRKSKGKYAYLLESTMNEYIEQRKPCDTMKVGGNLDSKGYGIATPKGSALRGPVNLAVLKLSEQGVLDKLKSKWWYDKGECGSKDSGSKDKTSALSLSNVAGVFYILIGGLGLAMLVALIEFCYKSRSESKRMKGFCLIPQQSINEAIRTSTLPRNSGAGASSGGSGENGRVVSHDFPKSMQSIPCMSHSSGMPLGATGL
T1 sequence (P42262 25-883 isoform P42262-2 limits assumed): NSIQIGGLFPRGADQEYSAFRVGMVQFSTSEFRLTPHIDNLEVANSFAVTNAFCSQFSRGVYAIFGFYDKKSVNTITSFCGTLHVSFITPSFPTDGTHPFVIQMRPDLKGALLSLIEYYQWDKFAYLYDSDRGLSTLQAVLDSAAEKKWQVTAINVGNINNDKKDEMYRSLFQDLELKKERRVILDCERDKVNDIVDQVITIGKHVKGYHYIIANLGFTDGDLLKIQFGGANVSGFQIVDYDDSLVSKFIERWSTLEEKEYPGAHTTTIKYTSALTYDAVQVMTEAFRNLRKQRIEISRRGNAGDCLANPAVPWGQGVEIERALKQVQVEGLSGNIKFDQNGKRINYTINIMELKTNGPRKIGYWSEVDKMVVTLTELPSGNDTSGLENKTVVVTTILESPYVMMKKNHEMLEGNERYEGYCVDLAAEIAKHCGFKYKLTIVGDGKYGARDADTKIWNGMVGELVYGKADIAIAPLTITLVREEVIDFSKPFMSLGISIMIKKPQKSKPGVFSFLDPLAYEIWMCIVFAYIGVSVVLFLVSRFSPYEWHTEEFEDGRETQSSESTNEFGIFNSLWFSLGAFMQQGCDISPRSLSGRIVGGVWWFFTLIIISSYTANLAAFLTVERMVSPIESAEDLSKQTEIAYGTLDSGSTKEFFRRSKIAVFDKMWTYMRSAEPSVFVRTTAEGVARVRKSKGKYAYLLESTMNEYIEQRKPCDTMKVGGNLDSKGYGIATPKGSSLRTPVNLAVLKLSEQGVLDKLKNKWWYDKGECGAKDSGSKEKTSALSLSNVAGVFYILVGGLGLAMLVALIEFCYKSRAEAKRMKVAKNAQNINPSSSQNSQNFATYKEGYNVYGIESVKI
Description: (§1) Up to 20 μg of high-copy plasmid DNA was prepared using the QIAGEN Plasmid Mini Kit, the tubes were then centrifuged to extract the supernatant containing the plasmid DNA, ethanol was used to wash the DNA pellet, then centrifuged again and the supernatant was carefully removed as to not disturb the pellet, finally, the pellet was air-dried, and the DNA was re-dissolved in a suitable volume of buffer, (our prior study detailed the whole DNA preparation data). The flip isoform was used in all AMPAR subunits used in this investigation. AMPAR subunits were subcloned in pRK and expressed in the human embryonic kidney cells (HEK293) (The HEK293 cell line was obtained from Sigma, Schnelldorf, Germany). IPA (Integrated Patch Amplifier) recorded HEK293 cells 36–48 h after transfection using the patch-clamp method (Sutter Instruments, Novato, CA, USA). A high-speed piezo solution switcher was installed on a double-barreled glass (theta tube) to provide solutions fast, isolate receptor responses from any network influences, and preserve, as much as possible, the postsynaptic protein machinery. Thus, inhibition was measured by comparing the current recorded when glutamate alone was administered to the current observed when glutamate plus the compound of interest was delivered to the same cell. Before administering the α-LA compounds, experiments were conducted to determine the appropriate concentration to be delivered to the cells without harming them. Dichloromethane (12 µM) effect on GluA1 and GluA2 subunits was tested to ensure that it had no effect on AMPA receptor currents (Figure S8). The effect of α-LA compounds on AMPA subunits plateaued at a concentration of 12 µM because LA inhibits AMPA receptors at low concentrations and continues to inhibit them when LA concentrations are increased by 2 µM each interval, as shown in Figure S1. The concentration increased by 2 µM each time to ensure that no cells were harmed. The cells were washed for 20 s between α-LA derivatives (12 µM), and 10 mM glutamate was supplied alone after each α-LA compound to ensure cell health. Data analysis was carried out using Igor Pro7 (Wave Metrics, inc). For both desensitization (τw des) and deactivation rates (τw deact), an exponential fit to the current decline was obtained at 95% of peak to baseline current. The weighted tau (τw) was calculated as τw = (τf × af) + (τs × as), where af and as are the amplitudes of the fast (τf) and slow (τs) exponential components, respectively. Our study detailed the experimental data set.
(§2) Data are presented as mean ± standard error of the mean (SEM). The number of samples (n = 10) refers to the total number of tested HEK293 cells. Statistical differences between the groups and the wild type were examined by One Way Analysis of Variance (ANOVA), with values of p < 0.05 being considered to indicate statistical significance: (*) p < 0.05, (**) p < 0.01, (***) p < 0.001, ns, not significant. Concentration-response relationships were fitted as composite curves using GraphPad Prism version 6.01 (GraphPad Software, San Diego, CA, USA) to the Hill equation. All results were representative of at least three independent experiments.
(§3) Figure 2 Suppression of AMPA receptor currents by α-LA compounds. Graphs (a,c,e,g) present AMPA receptor currents (pA) before and after the administration of α-LA derivatives on GluA1, GluA1/2, GluA2, and GluA2/3 subunits. While (b,d,f,h) present the ratio A/AI, where A represents the current caused by 10 mM glutamate alone and AI represents the current induced by glutamate + α-LA (12 µM). The whole-cell current was measured at −60 mV, pH 7.4, and 22 °C. A one way analysis of variance (ANOVA) was performed for comparison: *** p < 0.001; ns, not significant. Ten cells were investigated for each LA compound. All values are shown as mean SEM.
(§4) Figure 3 The potency of LA compounds against AMPA receptor subunits. […]

[2] = biological target: T2, GluA2 AMPA receptor subunit (flip isoform) (Homo sapiens, UniProt P42262); assay: Whole-cell patch-clamp electrophysiology, homomeric GluA2 expressed in HEK293 cells; details: for Amplitude (glutamate + compound): 10 mM glutamate + 12 µM compound, −60 mV, pH 7.4, 22 °C, mean ± SEM; for Amplitude (glutamate + compound) / A/AI (current with glutamate alone / current with glutamate + compound): n = 10; for A/AI (current with glutamate alone / current with glutamate + compound): 10 mM glutamate, 12 µM compound; for IC50: Hill fit; for t deact (weighted deactivation time constant) / t des (weighted desensitization time constant): glutamate + 12 µM compound; for t deact (weighted deactivation time constant): glutamate alone 2.4±0.1 ms; for t des (weighted desensitization time constant): glutamate alone 2.6±0.1 ms
T2 construct: expressed in transfected cells; host or cells: HEK293
T2 sequence (P42262 25-883 isoform P42262-2 limits assumed): as above
Description: as §1, §2, §3, §4

[3] = biological target: T3, GluA1 AMPA receptor subunit (flip isoform) (Homo sapiens, UniProt P42261); assay: Whole-cell patch-clamp electrophysiology, homomeric GluA1 expressed in HEK293 cells; details: for Amplitude (glutamate + compound): 10 mM glutamate + 12 µM compound, −60 mV, pH 7.4, 22 °C, mean ± SEM; for Amplitude (glutamate + compound) / A/AI (current with glutamate alone / current with glutamate + compound): n = 10; for A/AI (current with glutamate alone / current with glutamate + compound): 10 mM glutamate, 12 µM compound; for IC50: Hill fit; for t deact (weighted deactivation time constant) / t des (weighted desensitization time constant): glutamate + 12 µM compound; for t deact (weighted deactivation time constant): glutamate alone 2.2±0.1 ms; for t des (weighted desensitization time constant): glutamate alone 2.3±0.1 ms
T3 construct: expressed in transfected cells; host or cells: HEK293
T3 sequence (P42261 19-906 isoform P42261-2 limits assumed): as the sequence (P42261 19-906 isoform P42261-2 limits assumed) above
Description: as §1, §2, §3, §4

[4] = tested on: AMPA receptor subunits (GluA1, GluA2, GluA1/2, GluA2/3); assay: Whole-cell patch-clamp electrophysiology, summary over the AMPA receptor subunits in HEK293 cells; details: for decrease in the peak current of the AMPARs / increase of the rate of AMPA receptor deactivation (τw deact) / reduction in the rate of desensitization (τw des): all AMPA receptor subunits, 12 µM compound; for IC50: over GluA1, GluA1/2, GluA2, GluA2/3, read-out: approximate IC50 against AMPA receptor subunits
Description: as §1, §2
The levels of inhibition of α-LA and its derivatives attracted our attention to assessing the potency of the compounds in a concentration-dependent manner. […] The concentration−inhibition curves were produced by administering glutamate alone at a concentration of 10 mM, followed by glutamate + α-LA derivatives at varying concentrations (in μM) for every recording point. Afterward, the cells were normalized back by administering glutamate alone. Since the glutamate concentration in the synaptic cleft constantly saturates the receptors, driving the response to a near maximum level, variability occurs because the maximum level changes. […]

[5] = biological target: T4, GluA2/3 AMPA receptor subunits (flip isoform) (Homo sapiens, UniProt P42262+P42263); assay: Whole-cell patch-clamp electrophysiology, heteromeric GluA2/3 expressed in HEK293 cells; details: for Amplitude (glutamate + compound): 10 mM glutamate + 12 µM compound, −60 mV, pH 7.4, 22 °C, mean ± SEM; for Amplitude (glutamate + compound) / A/AI (current with glutamate alone / current with glutamate + compound): n = 10; for A/AI (current with glutamate alone / current with glutamate + compound): 10 mM glutamate, 12 µM compound; for IC50: Hill fit; for t deact (weighted deactivation time constant) / t des (weighted desensitization time constant): glutamate + 12 µM compound; for t deact (weighted deactivation time constant): glutamate alone 2.4±0.3 ms; for t des (weighted desensitization time constant): glutamate alone 2.7±0.3 ms
T4 construct: expressed in transfected cells; host or cells: HEK293
T4 sequence (P42262 25-883 isoform P42262-2 limits assumed): as the sequence (P42262 25-883 isoform P42262-2 limits assumed) above
T4 sequence (P42263 29-894 isoform P42263-2 limits assumed): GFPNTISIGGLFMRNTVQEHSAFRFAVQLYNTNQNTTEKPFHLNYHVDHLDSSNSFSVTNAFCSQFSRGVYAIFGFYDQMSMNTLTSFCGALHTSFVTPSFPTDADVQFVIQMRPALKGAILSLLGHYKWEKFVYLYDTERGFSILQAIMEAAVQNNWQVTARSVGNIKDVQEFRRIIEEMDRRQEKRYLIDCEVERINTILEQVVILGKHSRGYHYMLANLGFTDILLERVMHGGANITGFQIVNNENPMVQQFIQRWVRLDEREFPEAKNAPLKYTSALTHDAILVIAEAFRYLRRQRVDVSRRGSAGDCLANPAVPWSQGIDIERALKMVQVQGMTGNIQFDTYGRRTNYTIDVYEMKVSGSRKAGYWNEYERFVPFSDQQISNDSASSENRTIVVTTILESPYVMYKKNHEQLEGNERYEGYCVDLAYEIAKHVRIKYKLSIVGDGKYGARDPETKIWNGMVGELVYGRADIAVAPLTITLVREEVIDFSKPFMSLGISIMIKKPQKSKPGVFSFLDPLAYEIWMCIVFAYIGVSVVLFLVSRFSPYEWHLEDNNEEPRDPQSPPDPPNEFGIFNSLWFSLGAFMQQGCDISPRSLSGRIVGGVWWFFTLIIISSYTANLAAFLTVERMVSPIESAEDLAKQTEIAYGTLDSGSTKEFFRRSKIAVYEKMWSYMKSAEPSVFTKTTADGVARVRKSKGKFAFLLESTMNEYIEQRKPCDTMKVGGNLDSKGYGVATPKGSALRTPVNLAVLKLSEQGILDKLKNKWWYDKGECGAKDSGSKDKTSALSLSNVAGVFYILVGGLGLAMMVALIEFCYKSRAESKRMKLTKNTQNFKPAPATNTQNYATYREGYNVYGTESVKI
Description: as §1, §2, §3, §4

[6] = whole-cell normalized peak amplitude, unit printed in the text, not in Table S6, read-out: IC50

Row | SMILES | Amplitude (glutamate + compound) [1] [pA] | A/AI (current with glutamate alone / current with glutamate + compound) [1] | IC50 ([1]; read-out: Log IC50 (converted)) [µM] | t deact (weighted deactivation time constant) [1] [ms] | t des (weighted desensitization time constant) [1] [ms] | IC50 [1, 6] [µM] | Amplitude (glutamate + compound) [2] [pA] | A/AI (current with glutamate alone / current with glutamate + compound) [2] | IC50 ([2]; read-out: Log IC50 (converted)) [µM] | t deact (weighted deactivation time constant) [2] [ms] | t des (weighted desensitization time constant) [2] [ms] | IC50 [2, 6] [µM] | Amplitude (glutamate + compound) [3] [pA] | A/AI (current with glutamate alone / current with glutamate + compound) [3] | IC50 ([3]; read-out: Log IC50 (converted)) [µM] | t deact (weighted deactivation time constant) [3] [ms] | t des (weighted desensitization time constant) [3] [ms] | IC50 [3, 6] [µM] | decrease in the peak current of the AMPARs [4] | increase of the rate of AMPA receptor deactivation (τw deact) [4] | other results
1 | O=C(CCCCC1CCSS1)OCCCO (stereo not shown) [LA1, 1-Hydroxy-3-Lipo Ester] | 60±9.0 | 10.32±1.0 | 3.55 | 10.1 ± 0.7 | 2.8 ± 0.3 | 3.54 | 124±19.0 | 10.22±0.8 | 3.63 | 10.4 ± 0.9 | 1.0 ± 0.06 | 3.63 | 89±12.0 | 10.43±0.7 | 3.47 | 9.5 ± 0.5 | 0.8 ± 0.1 | 3.47 | about 10 fold | about 4 fold | reduction in the rate of desensitization (τw des) [4]: 3–4 fold; IC50 [4]: 3.5 to 3.8 µM; Amplitude (glutamate + compound) [5]: 52±8.0 pA; A/AI (current with glutamate alone / current with glutamate + compound) [5]: 10.14±1.0; IC50 ([5]; read-out: Log IC50 (converted)): 3.8 µM; t deact (weighted deactivation time constant) [5]: 10.1 ± 0.6 ms; t des (weighted desensitization time constant) [5]: 1.2 ± 0.09 ms; IC50 [5, 6]: 3.8 µM
2 | O=C(CCCCC1CCSS1)OCCCO[N+](=O)[O-] (stereo not shown) [LA2, 1-Nitrooxy–propane-3-lipoyl ester] | 57±8.0 | 11.34±0.9 | 3.39 | 11.1 ± 0.9 | 2.7 ± 0.2 | 3.41 | 112±17.0 | 11.16±0.7 | 3.55 | 10.9 ± 0.7 | 0.8 ± 0.08 | 3.51 | 79±11.0 | 11.53±0.8 | 3.39 | 11.6 ± 0.7 | 0.6 ± 0.1 | 3.35 | ~11 fold | approximately 5 fold | reduction in the rate of desensitization (τw des) [4]: 3–4 fold; IC50 [4]: ~3.5 µM; Amplitude (glutamate + compound) [5]: 46±7.0 pA; A/AI (current with glutamate alone / current with glutamate + compound) [5]: 11.03±1.0; IC50 ([5]; read-out: Log IC50 (converted)): 3.63 µM; t deact (weighted deactivation time constant) [5]: 10.8 ± 0.9 ms; t des (weighted desensitization time constant) [5]: 0.9 ± 0.09 ms; IC50 [5, 6]: 3.61 µM
3 | O=C(CCCCC1CCSS1)OCCCCCCO[N+](=O)[O-] (stereo not shown) [LA3, 1-Nitrooxy–Hexane-6-lipoyl ester] | 81±12.0 | 8.05±0.8 | 4.37 | 7.9 ± 0.67 | 3.6 ± 0.2 | 4.33 | 155±25 | 7.91±0.7 | 4.37 | 7.7 ± 0.3 | 1.8 ± 0.04 | 4.37 | 114±12.0 | 8.13±0.6 | 3.63 | 8.1 ± 0.4 | 1.7 ± 0.1 | 3.59 | roughly 8 fold | roughly 3 fold | Amplitude (glutamate + compound) [5]: 71±14.0 pA; A/AI (current with glutamate alone / current with glutamate + compound) [5]: 7.84±0.9; IC50 ([5]; read-out: Log IC50 (converted)): 4.47 µM; t deact (weighted deactivation time constant) [5]: 7.6 ± 0.7 ms; t des (weighted desensitization time constant) [5]: 1.9 ± 0.1 ms; IC50 [5, 6]: 4.46 µM

From PMC9688225, “α-Lipoic Acid Derivatives as Allosteric Modulators for Targeting AMPA-Type Glutamate Receptors’ Gating Modules” (Cells, 2022)
